Here are results for 44 compounds from patent US10457672B2, “γ-diketones as Wnt/β-catenin signaling pathway activators” (Samumed, LLC, priority 2013, dated 2019).

In this assay the test system is Wnt/β-catenin signaling pathway (Wnt-responsive SP5 promoter luciferase reporter in SW480 cells). As to the kind of experiment: Wnt reporter (SP5 promoter-firefly luciferase) activation assay in SW480 cells. It counts as cell-based. The conditions noted are these: Homo sapiens; SW480 colon cancer cells with SP5 promoter luciferase reporter; 24 h after compound addition; normalized to DMSO; concentration at half maximal activation. How it is done:
Compounds that enhance the Wnt activity, or Activators, were assayed as follows. Reporter cell lines were generated by stably transducing cells of colon cancer cell lines (with a lentiviral construct that included a Wnt-responsive promoter driving expression of the firefly luciferase gene).
Lentiviral constructs were made in which the SP5 promoter, a promoter having eight TCF/LEF binding sites derived from the SP5 promoter, was linked upstream of the firefly luciferase gene. The lentiviral constructs also included a hygromycin resistance gene as a selectable marker. The SP5 promoter construct was used to transduce SW480 cells, a colon cancer cell line having a mutated APC gene that generates a truncated APC protein, leading to de-regulated accumulation of β-catenin.
Cultured SW480 cells bearing a reporter construct were distributed at approximately 10,000 cells per well into 384- or 96-well multiwell plates. Compounds from a small molecule compound library were then added to the wells in half-log dilutions using a maximum concentration of three or ten micromolar. A series of control wells for each cell type received only buffer and compound solvent DMSO. Twenty-four hours after the addition of compound, reporter activity for luciferase was assayed, for example, by addition of the BrightGlo luminescence reagent (Promega) and the Victor3 plate reader (Perkin Elmer). Readings were normalized to DMSO only treated cells, and any activities above DMSO were considered activation. Compounds were considered activators if reporter activities were 2× fold or greater than DMSO. EC50 is the concentration at half maximal activation.
As for `O=C(CCC(=O)c1cccc2c1OCCO2)c1cccc(F)c1` [Compound 240, 1-(2,3-Dihydrobenzo[b][1,4]dioxin-5-yl)-4-(3-fluorophenyl)butane-1,4-dione], the EC50 (as a rule, the concentration that produces a half-maximal response) turned out to be 669 nM.
`COc1ccc(C(=O)CCC(=O)c2cccnn2)cc1OC` [Compound 433, 1-(3,4-Dimethoxyphenyl)-4-(pyridazin-3-yl)butane-1,4-dione]: the EC50 was > 10000 nM.
With `COc1ccc(C(=O)CCC(=O)c2cccnc2)cc1OC` [Compound 208, 1-(3,4-Dimethoxyphenyl)-4-(pyridin-3-yl)butane-1,4-dione] the figure was > 10000 nM; with `O=C(CCC(=O)c1c[nH]c2ccccc12)c1cccs1` [Compound 524, 1-(1H-Indol-3-yl)-4-(thiophen-2-yl)butane-1,4-dione], 88 nM.
Turning to `O=C(CCC(=O)c1c[nH]c2ccccc12)c1ccccc1C(F)(F)F` [Compound 314, 1-(1H-Indol-3-yl)-4-(2-(trifluoromethyl)phenyl)butane-1,4-dione], the concentration giving a half-maximal response (EC50) was 16 nM.
As for `Cc1ccccc1C(=O)CCC(=O)c1ccc2occc2c1` [Compound 455, 1-(Benzofuran-5-yl)-4-(o-tolyl)butane-1,4-dione], the EC50 stood at 32 nM.
`O=C(CCC(=O)c1cccs1)c1ccc2c(c1)OCO2` [Compound 374, 1-(Benzo[d][1,3]dioxol-5-yl)-4-(thiophen-2-yl)butane-1,4-dione] returned a concentration for a half-maximal effect (EC50) of 13 nM.
Take `O=C(CCC(=O)c1ccccc1C(F)(F)F)c1ccc2[nH]ncc2c1` [Compound 498, 1-(1H-Indazol-5-yl)-4-(2-(trifluoromethyl)phenyl)butane-1,4-dione]: the 50% effective concentration (EC50) came to 12 nM. The EC50 values of the last two compounds are within 1.5-fold of each other.
As to `O=C(CCC(=O)c1ccc2c(c1)SCCO2)c1ccc(F)cc1` [Compound 21, 1-(2,3-Dihydrobenzo[b][1,4]oxathiin-6-yl)-4-(4-fluorophenyl)butane-1,4-dione], the EC50 is 31 nM.
On to `Cc1ccccc1C(=O)CCC(=O)c1cccs1` [Compound 560, 1-(Thiophen-2-yl)-4-(o-tolyl)butane-1,4-dione], for which a half-maximal effect (EC50) was put at 55 nM.
In the case of `O=C(CCC(=O)c1ccc2[nH]cnc2c1)c1cccc(C(F)(F)F)c1` [Compound 263, 1-(1H-Benzo[d]imidazol-5-yl)-4-(3-(trifluoromethyl)phenyl)butane-1,4-dione], the concentration giving a half-maximal response (EC50) is > 10000 nM.
With `COc1cccc(C(=O)CCC(=O)c2c[nH]c3ccccc23)c1` [Compound 320, 1-(1H-Indol-3-yl)-4-(3-methoxyphenyl)butane-1,4-dione] the figure was > 10000 nM; with `O=C(CCC(=O)c1ccc2[nH]cnc2c1)c1ccccc1` [Compound 274, 1-(1H-Benzo[d]imidazol-5-yl)-4-phenylbutane-1,4-dione], 6800 nM.
With `O=C(CCC(=O)c1ccc2occc2c1)c1ccccc1` [Compound 287, 1-(Benzofuran-5-yl)-4-phenylbutane-1,4-dione] the figure was 87 nM; with `O=C(CCC(=O)c1ccco1)c1ccc2c(c1)CCCO2` [Compound 365, 1-(Chroman-6-yl)-4-(furan-2-yl)butane-1,4-dione], 33 nM; with `O=C(CCC(=O)c1ncccc1Cl)c1ccc2c(c1)OCCO2` [Compound 767, 1-(3-Chloropyridin-2-yl)-4-(2,3-dihydrobenzo[b][1,4]dioxin-6-yl) butane-1,4-dione], 2.16 nM.
The same measure for `O=C(CCC(=O)c1cccnn1)c1ccc2c(c1)OCCO2` [Compound 341, 1-(2,3-Dihydrobenzo[b][1,4]dioxin-6-yl)-4-(pyridazin-3-yl)butane-1,4-dione]: 95 nM; for `O=C(CCC(=O)c1ccccc1F)c1ccc2c(c1)OCO2` [Compound 213, 1-(Benzo[d][1,3]dioxol-5-yl)-4-(2-fluorophenyl)butane-1,4-dione]: 18 nM.
`O=C(CCC(=O)c1ccccc1F)c1ccc2c(c1)SCCO2` [Compound 19, 1-(2,3-Dihydrobenzo[b][1,4]oxathiin-6-yl)-4-(2-fluorophenyl)butane-1,4-dione] had an EC50 of 3 nM.
For `O=C(CCC(=O)c1cccs1)c1ccc2[nH]ccc2c1` [Compound 451, 1-(1H-Indol-5-yl)-4-(thiophen-2-yl)butane-1,4-dione], the response was half-maximal at 37 nM (EC50).
`O=C(CCC(=O)c1ccccn1)c1ccc2sccc2c1` [Compound 310, 1-(Benzo[b]thiophen-5-yl)-4-(pyridin-2-yl)butane-1,4-dione] registered an EC50 of 68 nM.
For the compound `Cc1cccc(C(=O)CCC(=O)c2ccc3c(c2)OCCO3)c1` [Compound 343, 1-(2,3-Dihydrobenzo[b][1,4]dioxin-6-yl)-4-(m-tolyl)butane-1,4-dione], the EC50 came out at 351 nM. This EC50 lies about 5.2-fold higher than the previous one.
On to `O=C(CCC(=O)c1ccccc1C(F)(F)F)c1ccc2occc2c1` [Compound 275, 1-(Benzofuran-5-yl)-4-(2-(trifluoromethyl)phenyl)butane-1,4-dione], for which the EC50 was determined as 9 nM.
With `O=C(CCC(=O)c1ccncn1)c1ccc2c(c1)OCCO2` [Compound 340, 1-(2,3-Dihydrobenzo[b][1,4]dioxin-6-yl)-4-(pyrimidin-4-yl)butane-1,4-dione], a half-maximal effect (EC50) was put at 209 nM.
Regarding `COc1ccccc1C(=O)CCC(=O)c1ccc2sccc2c1` [Compound 307, 1-(Benzo[b]thiophen-5-yl)-4-(2-methoxyphenyl)butane-1,4-dione], it took 55 nM to reach a half-maximal effect (EC50). This EC50 lies about 3.8-fold lower than the previous one.
With `O=C(CCC(=O)c1ccc2ocnc2c1)c1cccc(F)c1` [Compound 292, 1-(Benzo[d]oxazol-5-yl)-4-(3-fluorophenyl)butane-1,4-dione] the figure was 595 nM.
Turning to `COc1ccc(C(=O)CCC(=O)c2ccccn2)cc1OC` [Compound 207, 1-(3,4-Dimethoxyphenyl)-4-(pyridin-2-yl)butane-1,4-dione], the half-maximal effective concentration (EC50) was > 10000 nM.
The same measure for `O=C(CCC(=O)c1ccccc1F)c1ccc2occc2c1` [Compound 278, 1-(Benzofuran-5-yl)-4-(2-fluorophenyl)butane-1,4-dione]: 18 nM.
The same measure for `Cc1cccc(C(=O)CCC(=O)c2n[nH]c3ccccc23)c1` [Compound 529, 1-(1H-Indazol-3-yl)-4-(m-tolyl)butane-1,4-dione]: 695 nM.
The same measure for `O=C(CCC(=O)c1ccc2c(c1)OCCO2)c1cccnc1` [Compound 14, 1-(2,3-dihydrobenzo[b][1,4]dioxin-6-yl)-4-(pyridin-3-yl)butane-1,4-dione]: 306 nM; for `Cc1ccc(C(=O)CCC(=O)c2ccc3c(c2)OCCO3)cc1` [Compound 344, 1-(2,3-Dihydrobenzo[b][1,4]dioxin-6-yl)-4-(p-tolyl)butane-1,4-dione]: 307 nM; for `O=C(CCC(=O)c1n[nH]c2ccccc12)c1ccccc1F` [Compound 329, 1-(2-Fluorophenyl)-4-(1H-indazol-3-yl)butane-1,4-dione]: 89 nM.
As for `O=C(CCC(=O)c1cc2c(c(O)c1O)OCCO2)c1ccccc1` [Compound 4, 1-(7,8-dihydroxy-2,3-dihydrobenzo[b][1,4]dioxin-6-yl)-4-phenylbutane-1,4-dione], the EC50 was > 10000 nM.
On to `Cc1ccccc1C(=O)CCC(=O)c1ccc2c(c1)OCCO2` [Compound 342, 1-(2,3-Dihydrobenzo[b][1,4]dioxin-6-yl)-4-(o-tolyl)butane-1,4-dione], for which the EC50 is 9 nM. This lies in the single-digit nanomolar range.
With `O=C(CCC(=O)c1ccc2c(c1)OCO2)c1ccccc1` [Compound 222, 1-(Benzo[d][1,3]dioxol-5-yl)-4-phenylbutane-1,4-dione] the figure was 3 nM; with `Cc1cccc(C(=O)CCC(=O)c2ccc3occc3c2)c1` [Compound 456, 1-(Benzofuran-5-yl)-4-(m-tolyl)butane-1,4-dione], 673 nM.
With `COc1cccc(C(=O)CCC(=O)c2ccc3[nH]cnc3c2)c1` [Compound 269, 1-(1H-Benzo[d]imidazol-5-yl)-4-(3-methoxyphenyl)butane-1,4-dione] the figure was > 10000 nM.
Compound `O=C(CCC(=O)c1ccccc1C(F)(F)F)c1ccc2c(c1)SCCO2` [Compound 16, 1-(2,3-Dihydrobenzo[b][1,4]oxathiin-6-yl)-4-(2-(trifluoromethyl)phenyl)butane-1,4-dione] gave an EC50 of 7 nM.
With `O=C(CCC(=O)c1ccccc1F)c1ccccn1` [Compound 538, 1-(2-Fluorophenyl)-4-(pyridin-2-yl)butane-1,4-dione] the figure was 63 nM; with `O=C(CCC(=O)c1ncccn1)c1ccc2c(c1)OCCO2` [Compound 339, 1-(2,3-Dihydrobenzo[b][1,4]dioxin-6-yl)-4-(pyrimidin-2-yl)butane-1,4-dione], 9 nM; with `O=C(CCC(=O)c1ccccc1C(F)(F)F)c1ccccn1` [Compound 541, 1-(Pyridin-2-yl)-4-(2-(trifluoromethyl)phenyl)butane-1,4-dione], 2810 nM.
With `Cc1ccccc1C(=O)CCC(=O)c1ccccn1` [Compound 544, 1-(Pyridin-2-yl)-4-(o-tolyl)butane-1,4-dione] the figure was 900 nM; with `O=C(CCC(=O)c1ncccc1F)c1ccc2c(c1)OCCO2` [Compound 569, 1-(2,3-Dihydrobenzo[b][1,4]dioxin-6-yl)-4-(3-fluoropyridin-2-yl) butane-1,4-dione], 1.96 nM; with `Cc1ccccc1C(=O)CCC(=O)c1ccc2c(c1)OCO2` [Compound 368, 1-(Benzo[d][1,3]dioxol-5-yl)-4-(o-tolyl)butane-1,4-dione], 16 nM.
